The test system of the test is HCV pseudoparticles (genotype 1a HCV E1 and E2 envelope, H77C isolate). Nature of the test: HCV pseudoparticle infection assay (luciferase, Huh7 cells). In kind it is cell-based, HCV genotype 1a (H77C isolate). Particulars: HCV pseudoparticle entry into Huh7 cells, luciferase 2 days after infection.
The mark [1] stands for this setting: Hepatitis C virus, Huh-7, 48 h, average of duplicates.
Setting [2] is: Hepatitis C virus, Huh-7, 48 h, class symbol.

For orientation: pEC50 means the negative decadic logarithm of the EC50, by convention in mol/L. A lower pEC50 goes with a high EC50.

pEC50: −log10 of the molar value.

As to `CC1(C)CCNC(=O)c2ccc(cc2)Nc2cc(nc(OCC(F)(F)F)n2)NCc2ccc(cc2)OCCCN1` [Compound 1001], the pEC50 was 6.04 (average of duplicates) and 6.00 to 7.00 (class symbol).
As for `O=C1NCCCOCCCCOCCCNc2cc(nc(OCC(F)(F)F)n2)Nc2ccc1cn2` [Compound 1002], the pEC50 is 6.67 under setting [1] and 6.00 to 7.00 under setting [2].
The corresponding values for `CC1(C)CNCCCOc2ccc(cc2)CNc2cc(nc(OCC(F)(F)F)n2)Nc2ccc(cn2)C(=O)NC1` [Compound 1003] are 9.68 and > 7.00.
With `C=C1CNCC(C)(C)CNC(=O)c2ccc(nc2)Nc2cc(nc(OCC(F)(F)F)n2)NCc2ccc(cc2)OC1` [Compound 1004], the pEC50 under setting [1] is 9.31 and the negative-log EC50 (pEC50) under setting [2] was > 7.00.
Turning to `CC1CNCC(C)(C)CNC(=O)c2ccc(nc2)Nc2cc(nc(OCC(F)(F)F)n2)NCc2ccc(cc2)OC1` (centres unmarked) [Compound 1005], the pEC50 is 9.42 under setting [1] and > 7.00 under setting [2].
Regarding `C[C@H]1CNCC(C)(C)CNC(=O)c2ccc(nc2)Nc2cc(nc(OCC(F)(F)F)n2)NCc2ccc(cc2)OC1` [Compound 1006], the negative logarithm of the EC50 (pEC50) is, setting by setting: under setting [1], 9.35; under setting [2], > 7.00.
As for `C[C@@H]1CNCC(C)(C)CNC(=O)c2ccc(nc2)Nc2cc(nc(OCC(F)(F)F)n2)NCc2ccc(cc2)OC1` [Compound 1007], the pEC50 under setting [1] was 9.72 and the pEC50 under setting [2] is > 7.00.
With `CC1(C)CNCCCOc2ccc(cc2)CNc2cc(nc(OCC(F)(F)F)n2)Nc2ccc(cc2)C(=O)NC1` [Example 2001], the pEC50 was 8.87 under setting [1] and > 7.00 under setting [2].
Take `CC1(C)CNCCCOc2ccc(c(F)c2)CNc2cc(nc(OCC(F)(F)F)n2)Nc2ccc(cc2)C(=O)NC1` [Example 2002]: the pEC50 is, setting by setting: under setting [1], 9.09; under setting [2], > 7.00.
Take `CC1(C)CNCCCOc2ccc(cc2F)CNc2cc(nc(OCC(F)(F)F)n2)Nc2ccc(cc2)C(=O)NC1` [Example 2003]: the pEC50 by setting is: under setting [1], 9.12; under setting [2], > 7.00.
Consider `O=C1NCC2(CC2)CNCCCOc2ccc(cc2)CNc2cc(nc(OCC(F)(F)F)n2)Nc2ccc1cc2` [Example 2004], for which the pEC50 runs as follows: under setting [1], 6.40; under setting [2], 6.00 to 7.00.
For `C[C@H]1CNCCCOc2ccc(cc2)CNc2cc(nc(OCC(F)(F)F)n2)Nc2ccc(cc2)C(=O)NC1` [Example 2005], the pEC50 reads like this: under setting [1], 6.74; under setting [2], 6.00 to 7.00.
`CC1(C)CCNC(=O)c2ccc(cc2)Nc2cc(nc(OCC(F)(F)F)n2)NCc2ccc(cc2)OCCCN1` [Example 2006]: the pEC50 (average of duplicates) is 6.49 and the pEC50 under setting [2] was 6.00 to 7.00.

For the origin of these results see patent US8629150B2, “Compounds for the treatment of hepatitis C” (priority 2011, dated 2014).
